Test results from ChEMBL document CHEMBL1127980, “A convenient synthesis of 2-amino-2-oxazolines and their pharmacological evaluation at cloned human adrenergic receptors” (Bioorg Med Chem Lett, 1994).

How the values were obtained:
[1] = target: T1, Alpha-2A adrenergic receptor (Homo sapiens, UniProt P08913); assay: Agonistic activity towards human Alpha-2A adrenergic receptor was measured as ability to inhibit forskolin-stimulated synthesis of cyclic adenosine monophosphate; assay type: functional
T1 sequence (P08913 whole entry): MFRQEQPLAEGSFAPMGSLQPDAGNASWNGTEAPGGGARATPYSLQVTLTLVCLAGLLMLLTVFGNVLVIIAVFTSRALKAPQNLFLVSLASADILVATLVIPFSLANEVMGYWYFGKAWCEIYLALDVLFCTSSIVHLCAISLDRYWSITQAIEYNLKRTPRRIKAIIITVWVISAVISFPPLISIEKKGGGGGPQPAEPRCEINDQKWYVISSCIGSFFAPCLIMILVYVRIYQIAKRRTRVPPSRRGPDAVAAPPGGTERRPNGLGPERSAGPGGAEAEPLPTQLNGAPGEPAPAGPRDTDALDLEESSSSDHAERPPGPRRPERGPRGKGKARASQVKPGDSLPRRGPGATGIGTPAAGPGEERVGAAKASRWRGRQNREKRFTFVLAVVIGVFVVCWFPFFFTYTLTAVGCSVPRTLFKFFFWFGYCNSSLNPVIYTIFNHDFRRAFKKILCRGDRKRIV

[2] = target: T1, Alpha-2A adrenergic receptor; assay: Binding affinity towards human Alpha-2A adrenergic receptor by the displacement of [3H]rauwolscine
[3] = target: T2, Alpha-2B adrenergic receptor (Homo sapiens, UniProt P18089); assay: Binding affinity towards human Alpha-2B adrenergic receptor by the displacement of [3H]rauwolscine
T2 sequence (P18089 whole entry): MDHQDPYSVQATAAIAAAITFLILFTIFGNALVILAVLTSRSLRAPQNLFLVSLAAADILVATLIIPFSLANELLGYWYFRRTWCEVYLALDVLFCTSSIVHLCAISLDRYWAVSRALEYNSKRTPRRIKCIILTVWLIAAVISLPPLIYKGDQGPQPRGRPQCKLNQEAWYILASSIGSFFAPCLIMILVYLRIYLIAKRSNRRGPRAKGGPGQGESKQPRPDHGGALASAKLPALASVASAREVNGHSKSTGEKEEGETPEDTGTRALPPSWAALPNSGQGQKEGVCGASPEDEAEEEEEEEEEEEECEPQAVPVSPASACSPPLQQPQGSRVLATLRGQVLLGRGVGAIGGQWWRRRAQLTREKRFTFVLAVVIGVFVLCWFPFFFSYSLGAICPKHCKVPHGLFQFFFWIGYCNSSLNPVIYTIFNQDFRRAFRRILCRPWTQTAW

[4] = target: T3, Alpha-2C adrenergic receptor (Homo sapiens, UniProt P18825); assay: Agonistic activity towards human Alpha-2C adrenergic receptor was measured as ability to inhibit forskolin-stimulated synthesis of cyclic adenosine monophosphate; assay type: functional
T3 sequence (P18825 whole entry): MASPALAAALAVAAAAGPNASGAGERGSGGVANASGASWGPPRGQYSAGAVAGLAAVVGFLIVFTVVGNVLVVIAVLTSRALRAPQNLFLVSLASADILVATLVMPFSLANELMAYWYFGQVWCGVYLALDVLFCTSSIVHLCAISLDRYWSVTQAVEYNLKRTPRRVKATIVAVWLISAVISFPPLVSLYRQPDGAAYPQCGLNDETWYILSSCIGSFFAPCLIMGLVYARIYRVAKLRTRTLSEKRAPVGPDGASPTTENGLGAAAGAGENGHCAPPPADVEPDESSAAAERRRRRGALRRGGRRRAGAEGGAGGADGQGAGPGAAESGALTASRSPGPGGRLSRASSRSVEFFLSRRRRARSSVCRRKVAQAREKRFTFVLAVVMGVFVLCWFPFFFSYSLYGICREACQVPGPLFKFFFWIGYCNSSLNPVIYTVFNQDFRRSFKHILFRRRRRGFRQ

[5] = target: T4, Alpha-1D adrenergic receptor (Homo sapiens, UniProt P25100); assay: Binding affinity towards human Alpha-1A adrenergic receptor by the displacement of [3H]prazosin
T4 sequence (P25100 whole entry): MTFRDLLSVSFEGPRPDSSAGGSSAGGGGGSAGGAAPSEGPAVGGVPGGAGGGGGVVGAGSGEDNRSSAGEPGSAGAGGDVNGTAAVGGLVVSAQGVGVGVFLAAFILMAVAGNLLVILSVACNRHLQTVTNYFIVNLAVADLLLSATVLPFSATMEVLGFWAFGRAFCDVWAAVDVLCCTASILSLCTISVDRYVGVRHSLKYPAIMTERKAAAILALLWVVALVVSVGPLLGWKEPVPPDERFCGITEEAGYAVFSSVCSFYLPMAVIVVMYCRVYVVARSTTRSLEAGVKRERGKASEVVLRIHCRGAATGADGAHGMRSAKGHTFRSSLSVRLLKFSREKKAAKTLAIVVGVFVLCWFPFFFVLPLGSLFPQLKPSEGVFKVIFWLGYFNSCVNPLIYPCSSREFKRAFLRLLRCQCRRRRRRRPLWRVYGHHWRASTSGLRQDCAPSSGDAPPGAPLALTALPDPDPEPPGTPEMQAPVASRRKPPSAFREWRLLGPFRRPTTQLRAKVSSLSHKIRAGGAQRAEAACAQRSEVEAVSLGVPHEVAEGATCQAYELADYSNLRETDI

[6] = target: T5, Alpha-1A adrenergic receptor (Homo sapiens, UniProt P35348); assay: Binding affinity towards human Alpha-1C adrenergic receptor by the displacement of [3H]prazosin
T5 sequence (P35348 whole entry): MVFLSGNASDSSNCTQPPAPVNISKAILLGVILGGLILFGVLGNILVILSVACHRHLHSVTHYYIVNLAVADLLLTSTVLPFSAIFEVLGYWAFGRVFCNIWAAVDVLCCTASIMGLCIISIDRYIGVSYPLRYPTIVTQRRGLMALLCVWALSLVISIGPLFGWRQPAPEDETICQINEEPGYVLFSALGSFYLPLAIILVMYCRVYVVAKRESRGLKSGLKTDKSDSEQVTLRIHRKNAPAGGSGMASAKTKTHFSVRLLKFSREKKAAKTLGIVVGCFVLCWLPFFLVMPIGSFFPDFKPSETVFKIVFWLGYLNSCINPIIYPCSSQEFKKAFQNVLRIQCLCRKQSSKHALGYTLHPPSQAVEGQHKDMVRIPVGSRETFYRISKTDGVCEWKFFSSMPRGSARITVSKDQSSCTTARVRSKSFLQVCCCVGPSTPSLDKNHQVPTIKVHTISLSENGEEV

[7] = target: T3, Alpha-2C adrenergic receptor; assay: Binding affinity towards human Alpha-2C adrenergic receptor by the displacement of [3H]rauwolscine
[8] = target: T2, Alpha-2B adrenergic receptor; assay: Agonistic activity towards human Alpha-2B adrenergic receptor was measured as ability to inhibit forskolin-stimulated synthesis of cyclic adenosine monophosphate; assay type: functional

| SMILES | EC50 [1] | Ki [2] | Ki [3] | EC50 [4] | Ki [5] | Ki [6] | Ki [7] | EC50 [8] |
| --- | --- | --- | --- | --- | --- | --- | --- | --- |
| C1COC(NC(C2CC2)C2CC2)=N1 [RILMENIDINE] | 275 nM | 182 nM | 70.8 nM | 191 nM | 8910 nM | 6030 nM | 288 nM | 724 nM |
| c1ccc2c(c1)CCCC2NC1=NCCO1 (stereo not given) | 1.17 nM | 2.34 nM | 2.14 nM | 2.19 nM | 204 nM | 126 nM | 12 nM | 3.55 nM |
| c1ccc2c(c1)CCCC2NC1=NCCCO1 (stereo not given) | 229 nM | 25.7 nM | 25.1 nM | 24.5 nM | 2190 nM | 1950 nM | 85.1 nM | 34.7 nM |
| C1CCCC(NC2=NCCO2)CC1 | 38 nM | 5.37 nM | 9.77 nM | 77.6 nM | 3800 nM | 2000 nM | 33.1 nM | 214 nM |

Results, then the molecule that gave them:

| EC50 [1] | Ki [2] | Ki [3] | EC50 [4] | Ki [5] | Ki [6] | Ki [7] | EC50 [8] | SMILES |
| --- | --- | --- | --- | --- | --- | --- | --- | --- |
|  | 16600 nM | 11700 nM |  | 120000 nM | 107000 nM | 16600 nM |  | C1COC(N2CCOCC2)=N1 |
| 1.62 nM | 2.95 nM | 5.89 nM | 4.07 nM | 562 nM | 141 nM | 24.5 nM | 9.33 nM | CCC[C@H]1CCCCC1NC1=NCCO1 (stereo not given in full) |
